According to PubChem BioAssay (NCI):
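Exposure lasted 48 hours, with cells grown in 96-well plates and compounds tested at five concentrations. GI50 marks 50% less growth. TGI: total growth inhibition.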

Experiments:
Assay in all cases: NCI tumour cell line growth inhibition, 48 h; in the data active = GI50 below about 0.43 µM; inactive = the rest
K-562 leukemia = test system: K-562 leukemia
M14 melanoma = test system: M14 melanoma
NCI-H226 lung = test system: NCI-H226 lung
SNB-19 CNS = test system: SNB-19 CNS
UACC-62 melanoma = test system: UACC-62 melanoma
SN12C renal = test system: SN12C renal
BT-549 breast = test system: BT-549 breast
HOP-92 NSCLC = test system: HOP-92 NSCLC
HS 578T breast = test system: HS 578T breast
TK-10 renal = test system: TK-10 renal
SF-268 CNS = test system: SF-268 CNS
HCT-116 colon = test system: HCT-116 colon
SF-295 CNS = test system: SF-295 CNS
COLO 205 colon = test system: COLO 205 colon
SK-MEL-2 melanoma = test system: SK-MEL-2 melanoma
MCF7 breast = test system: MCF7 breast
MOLT-4 leukemia = test system: MOLT-4 leukemia
EKVX NSCLC = test system: EKVX NSCLC
PC-3 prostate = test system: PC-3 prostate
MDA-MB-231 breast = test system: MDA-MB-231 breast
HL-60(TB) leukemia = test system: HL-60(TB) leukemia
UACC-257 melanoma = test system: UACC-257 melanoma
IGROV1 ovarian = test system: IGROV1 ovarian
CAKI-1 renal = test system: CAKI-1 renal
OVCAR-5 ovarian = test system: OVCAR-5 ovarian
NCI-H460 lung = test system: NCI-H460 lung
A549 NSCLC = test system: A549 NSCLC
SK-OV-3 ovarian = test system: SK-OV-3 ovarian
CCRF-CEM leukemia = test system: CCRF-CEM leukemia

N=C1C(c2nc3ccccc3s2)=C(O)CN1c1ccc(F)c(Cl)c1
inactive: GI50 (K-562 leukemia) 31.1 µM | GI50 (M14 melanoma) > 100 µM | GI50 (NCI-H226 lung) 6.11 µM | GI50 (SNB-19 CNS) 21.5 µM | GI50 (UACC-62 melanoma) 16.8 µM | GI50 (SN12C renal) 34.6 µM | GI50 (BT-549 breast) 30.2 µM | GI50 (HOP-92 NSCLC) 12 µM | GI50 (HS 578T breast) 22.9 µM | GI50 (TK-10 renal) 22.7 µM | GI50 (SF-268 CNS) 22 µM | GI50 (HCT-116 colon) 24.2 µM | GI50 (SF-295 CNS) 18.8 µM | GI50 (COLO 205 colon) > 100 µM | GI50 (SK-MEL-2 melanoma) 39 µM | GI50 (MCF7 breast) 40.3 µM | GI50 (MOLT-4 leukemia) 19.6 µM | GI50 (EKVX NSCLC) 48.5 µM | GI50 (PC-3 prostate) 4.04 µM | GI50 (MDA-MB-231 breast) 15.9 µM | GI50 (HL-60(TB) leukemia) > 100 µM | GI50 (UACC-257 melanoma) 22.9 µM | GI50 (IGROV1 ovarian) 19.4 µM | GI50 (CAKI-1 renal) 14.8 µM | GI50 (OVCAR-5 ovarian) 35.9 µM | GI50 (NCI-H460 lung) 17.5 µM | GI50 (A549 NSCLC) 11.2 µM | GI50 (SK-OV-3 ovarian) 25.3 µM | GI50 (CCRF-CEM leukemia) 36.8 µM
55.4 µM: TGI (NCI-H226 lung)
58.3 µM: TGI (IGROV1 ovarian)
47.3 µM: TGI (MDA-MB-231 breast)
98.1 µM: TGI (CAKI-1 renal)
52.7 µM: TGI (UACC-62 melanoma)
85.7 µM: TGI (SNB-19 CNS)
30.8 µM: TGI (PC-3 prostate)
62.2 µM: TGI (A549 NSCLC)
> 100 µM: TGI (K-562 leukemia) | TGI (M14 melanoma) | TGI (SN12C renal) | TGI (BT-549 breast) | TGI (TK-10 renal) | TGI (SF-268 CNS) | TGI (HCT-116 colon) | TGI (SF-295 CNS) | TGI (COLO 205 colon) | TGI (SK-MEL-2 melanoma) | TGI (MCF7 breast) | TGI (MOLT-4 leukemia) | TGI (EKVX NSCLC) | TGI (HL-60(TB) leukemia) | TGI (UACC-257 melanoma) | TGI (OVCAR-5 ovarian) | TGI (NCI-H460 lung) | TGI (SK-OV-3 ovarian)
64.5 µM: TGI (HS 578T breast)
37.5 µM: TGI (HOP-92 NSCLC)
